This note sets out measurements from US20240209456A1, “METHODS AND COMPOSITIONS RELATED TO CELL-CYCLE RNA's” (BETH ISRAEL DEACONESS MEDICAL CENTER, priority 2021, published 2024).

The subject of this assay is c-MYC SPEARs. In words: qRT-PCR / strand-specific qRT-PCR of c-MYC SPEARs. In kind it is cell-based, human. Particulars: for c-MYC SPEARs level upon transcription inhibitors: HL-60, DRB and ActD, FIG. 10C; for response of total c-MYC SPEARs: HL-60 released from double thymidine block, 2 hrs, MG149 200 μM, TH1834 500 μM. How it is done: Total RNA isolation was carried out and all RNA samples used in this study were treated with DNase I (10 U of DNase I per 3 μg of total RNA; 37° C. for one hour; in the presence of RNase inhibitor). After DNase I treatment, RNA samples were extracted with acidic phenol (pH 4.3) to eliminate any remaining traces of DNA. cDNA syntheses were performed with Random Primers (Invitrogen) or gene-specific primers with Transcriptor Reverse Transcriptase (Roche Applied Science) according to the manufacturer's recommendation. cDNA was purified with a High Pure PCR Product Purification Kit (Roche Applied Science).
Sybr green reaction was performed using iQ Sybr Green supermix (Biorad, Hercules, CA) using the following parameters: 95° C. (10 min), 40 cycles of 95° C. (15 s) and 60° C. (1 min) 72° C. (1 min). TaqMan analysis was performed using Hotstart Probe One-step qRT-PCR master mix (USB) at the following conditions: 50° C. (10 min.), 95° C. (2 min.), and then 40 cycles of 95° C. (15 sec.) and 60° C. (60 sec.).
Primers used for strand-specific real-time RT PCR (Sybr): Reverse Transcriptase primer for c-MYC SPEARs: 5′-AACCGCATCCTTGTCCTGTGAGTA-3′ (SEQ ID NO: 1); PCR primers: Forward: 5′-ACAGGCAGACACATCTCAGGGCTA-3′ (SEQ ID NO: 2); Reverse: 5′-ATAGGGAGGAATGATAGAGGCATA-3′ (SEQ ID NO: 3); and Reverse Transcriptase primer for PU1 SPEARs: 5′-GGCTTTTGCTCTAACCCAAC-3′ (SEQ ID NO: 4); PCR primers: Forward: 5′-ACTATGCTGAAGACCCTACAC-3′ (SEQ ID NO: 5); Reverse: 5′-GCTCTAACCCAACAAATGCC-3′ (SEQ ID NO: 6).
Nascent RNA/DNA capture was performed using Click-iT Nascent RNA Capture Kit (ThermoFisher) according to the manufacturer's instructions with minor modifications. Briefly, 1. Labeling the cells with EU/EdU. 200 mM EU or 30 mM EdU stock solutions were added to the cells, to a final concentration 0.5 mM or 30 μM, respectively. 2. Incubation. The cells were incubated for 1 or 2 hours. 3. RNA/DNA isolation. The cells were harvested and the RNA/DNA were isolated and dissolved in 14 μL of H2O. 4. Biotinylation of RNA/DNA by Click reaction. Click-iT reaction cocktail (50 μL per reaction) was prepared accordingly to manufacturer's instructions: a mixture containing 1× Click-iT EU buffer; 2 mM CuSO4; 1 mM Biotin azide; 13.25 μL of the isolated RNA; 10 mM Click-iT reaction buffer additive 1; 12 mM Click-iT reaction buffer additive 2 was prepared. After adding each component, the reaction cocktail was gently mixed by vortexing. The addition of the Click-iT reaction buffer additive 1 stock initiates the click reaction between the EU-RNA/EdU-DNA and biotin azide. Afterwards the Click-iT® reaction buffer additive 2 is added and incubated for 30 minutes with gentle vortexing. 5. RNA/DNA precipitation. […]

*1 amine or outer side, *2 acyl side, *3 side chain or, on linkers, in order; H or OH if unused. Where a SMILES comes first, the peptide text is derived from it. Bridges are numbered along the chain shown (N, C = ends). Roman numbers before positions name the chains, in order. [ ]: non-standard residue; d: D form. Actinocin(9to1) = Cc1c2oc3c(C)ccc(C(=O)[*:1])c3nc-2c(C(=O)[*:2])c(N)c1=O; NMeV = CN[C@H](C(=O)O)C(C)C; Sar = CNCC(=O)O

Turning to `Cc1c2oc3c(C)ccc(C(=O)N[C@@H]4C(=O)N[C@H](C(C)C)C(=O)N5CCC[C@H]5C(=O)N(C)CC(=O)N(C)[C@@H](C(C)C)C(=O)O[C@@H]4C)c3nc-2c(C(=O)N[C@@H]2C(=O)N[C@H](C(C)C)C(=O)N3CCC[C@H]3C(=O)N(C)CC(=O)N(C)[C@@H](C(C)C)C(=O)O[C@@H]2C)c(N)c1=O` [ActD, Actinomycin D] (I: T[dV]P[Sar][NMeV] / II: T[dV]P[Sar][NMeV]; ester I:1-I:C, II:1-II:C; linker I:N-II:N via Actinocin(9to1)), the “c-MYC SPEARs level upon transcription inhibitors” value was “negatively affected”.
Still for that read-out and setting: in the case of `OC[C@H]1O[C@@H](n2cnc3cc(Cl)c(Cl)cc32)[C@H](O)[C@@H]1O` [DRB, 5,6-Dichlorobenzimidazole 1-β-D-ribofuranoside] it was “negatively affected”.
Consider `CCCCCCCc1ccc(CCc2cccc(O)c2C(=O)O)cc1` [MG149], for which the “response of total c-MYC SPEARs” value is “not affected”.
On the same count and under the same terms, in the case of `O=C(O)Cn1nnc(-c2ccc(CN(CCCCOc3ccc(CN4CCCC4)cc3)CCc3ccccc3)cc2)n1` [TH1834] it was “not affected”.
